This is an account of results in US20100190817A1, “LARGE SUBSTITUENT, NON-PHENOLIC AMINE OPIOIDS” (RENSSELAER POLYTECHNIC INSTITUTE, priority 2008, published 2010).

One assay deals with mice. To be noted: cited from earlier work; for duration of action (antinociception): 1 mg/kg ip in mice.
The next assay concerns guinea pig μ receptors. To be noted: cited from earlier work.
The subject of another assay is κ opioid receptors. To be noted: cited from earlier work.
In the next assay the target is human μ opioid receptor (Homo sapiens, UniProt P35372). Kind of assay: Opioid receptor binding assay, [3H]DAMGO (μ).
The target in the next assay is human κ opioid receptor (Homo sapiens, UniProt P41145). Kind of assay: Opioid receptor binding assay, [3H]U69,593 (κ).
The next assay concerns the target human δ opioid receptor (Homo sapiens, UniProt P41143). Kind of assay: Opioid receptor binding assay, [3H]naltrindole (δ).

Sequence of human κ opioid receptor (P41145 whole entry): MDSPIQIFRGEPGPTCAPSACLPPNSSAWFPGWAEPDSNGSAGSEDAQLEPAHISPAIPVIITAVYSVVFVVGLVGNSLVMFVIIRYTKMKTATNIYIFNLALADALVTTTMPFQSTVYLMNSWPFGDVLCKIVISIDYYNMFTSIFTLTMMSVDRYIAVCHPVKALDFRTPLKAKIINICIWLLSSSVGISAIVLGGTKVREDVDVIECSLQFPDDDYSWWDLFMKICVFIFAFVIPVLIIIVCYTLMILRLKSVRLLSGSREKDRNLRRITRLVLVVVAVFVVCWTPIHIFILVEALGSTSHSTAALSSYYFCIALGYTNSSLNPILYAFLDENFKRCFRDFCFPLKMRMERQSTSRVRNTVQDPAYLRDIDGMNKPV
Sequence of human μ opioid receptor (P35372 whole entry): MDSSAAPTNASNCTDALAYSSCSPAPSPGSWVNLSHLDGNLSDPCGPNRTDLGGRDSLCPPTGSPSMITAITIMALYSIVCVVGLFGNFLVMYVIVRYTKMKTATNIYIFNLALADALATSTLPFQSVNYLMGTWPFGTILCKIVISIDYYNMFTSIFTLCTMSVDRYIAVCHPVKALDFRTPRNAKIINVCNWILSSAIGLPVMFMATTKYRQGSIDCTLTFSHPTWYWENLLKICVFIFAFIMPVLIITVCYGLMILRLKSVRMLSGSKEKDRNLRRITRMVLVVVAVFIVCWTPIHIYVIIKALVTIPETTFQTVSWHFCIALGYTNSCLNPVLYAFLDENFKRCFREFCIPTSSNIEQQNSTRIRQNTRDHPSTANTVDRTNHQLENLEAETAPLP
Sequence of human δ opioid receptor (P41143 whole entry): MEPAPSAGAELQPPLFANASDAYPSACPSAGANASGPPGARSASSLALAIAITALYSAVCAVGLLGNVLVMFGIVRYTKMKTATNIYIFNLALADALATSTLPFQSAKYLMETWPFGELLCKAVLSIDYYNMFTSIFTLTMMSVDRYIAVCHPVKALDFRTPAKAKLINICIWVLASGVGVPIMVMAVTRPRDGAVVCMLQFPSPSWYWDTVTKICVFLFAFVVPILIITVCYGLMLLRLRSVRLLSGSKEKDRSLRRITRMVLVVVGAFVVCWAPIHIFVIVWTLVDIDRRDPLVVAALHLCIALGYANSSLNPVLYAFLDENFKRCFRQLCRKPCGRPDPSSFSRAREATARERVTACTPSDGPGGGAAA

As for `C[C@H]1C2Cc3ccc(C(N)=O)cc3[C@@]1(C)CCN2CC1CC1` [Example 8-CAC, 8-carboxamidocyclazocine], the “duration of action (antinociception)” value in the assay with mice is given as 15 h. The antinociception activity result in the assay on mice (studies in vivo) is recorded as “high antinociception activity”. Moreover, the “affinity for μ opioid receptors” value with guinea pig μ receptors is “high affinity”. Further, in the assay on κ opioid receptors, the “affinity for κ opioid receptors” value is given as “high affinity”.

Consider `CC1C2Cc3ccc(C(=O)NCCc4ccc(-c5cccc(N(C)C)c5)cc4)cc3C1(C)CCN2CC1CC1` (centres unmarked) [SJJ-B-074c], for which the Ki is 0.18 ± 0.055 nM on human μ opioid receptor, 0.26 ± 0.022 nM on human κ opioid receptor and 2.5 ± 0.17 nM at human δ opioid receptor.

Regarding `CC1C2Cc3ccc(C(=O)NCCc4ccc(-c5ccc(N)cc5)cc4)cc3C1(C)CCN2CC1CC1` (centres unmarked) [SJJ-B-112g], the Ki came out at 0.0014 ± 0.0001 nM at human μ opioid receptor, 0.39 ± 0.0085 nM at human κ opioid receptor and 1.5 ± 0.078 nM on human δ opioid receptor.

Regarding `CC1C2Cc3ccc(C(=O)NCCc4ccc(-c5ccc(CN(C)C)cc5)cc4)cc3C1(C)CCN2CC1CC1` (centres unmarked) [SJJ-C-013b], the Ki at human μ opioid receptor worked out at 0.094 ± 0.0054 nM; at human κ opioid receptor, 1.9 ± 0.014 nM; at human δ opioid receptor, 3.7 ± 0.15 nM.

In the case of `CC1C2Cc3ccc(C(=O)NCCc4ccc(-c5ccc(NC(=O)OC(C)(C)C)cc5)cc4)cc3C1(C)CCN2CC1CC1` (centres unmarked) [SJJ-C-027b], the figures for the Ki at human μ opioid receptor, on human κ opioid receptor and on human δ opioid receptor were 0.32 ± 0.015 nM, 3.4 ± 0.32 nM and 3.1 ± 0.34 nM, respectively.

On to `C[C@H]1[C@H]2Cc3ccc(O)cc3[C@]1(C)CCN2CC1CC1` [cyclazocine], for which the “duration of action (antinociception)” value with mice is 2 h.
